One data set has as its system HIF-1α. In words: ELISA protein level in human GBM cell lysates. It counts as cell-based. As to the method:
(§1) ELISA for HIF-1a, MPG and MGMT. Protein expressions were assessed in all six glioma cell lines for all four groups of treatment (cell alone, cells with TMZ, cells with OKN, cells with combined OKN and TMZ). Cells were lysed before assaying. In brief, cells were washed by cold PBS gently, and then detached with trypsin, and collected by centrifugation at 1,000×g for 5 minutes. Then, cells were washed three times in cold PBS, then suspended in fresh lysis buffer. Lysates were centrifuged at 1,500×g for 10 minutes at 2-8° C. to remove cellular debris.
(§2) The assay is based on the sandwich ELISA principle. Each well of the supplied microtiter plate has been pre-coated with a target specific capture antibody. Standards or samples are added to the wells and the target antigen binds to the capture antibody. Unbound Standard or sample is washed away. A biotin-conjugated detection antibody is then added which binds to the captured antigen. Unbound detection antibody is washed away. An Avidin-Horseradish Peroxidase (HRP) conjugate is then added which binds to the biotin. Unbound Avidin-HRP conjugate is washed away. A TMB substrate is then added which reacts with the HRP enzyme resulting in color development. A sulfuric acid stop solution is added to terminate color development reaction and then the optical density (OD) of the well is measured at a wavelength of 450 nm±2 nm. The OD of an unknown sample can then be compared to an OD standard curve generated using known antigen concentrations in order to determine its antigen concentration.
(§3) The antigen concentration determined from ELISA was then normalized to the total protein concentration of each cell lysate in order to have comparison between groups. ELISA Kits for N-Methylpurine DNA Glycosylase (MPG) and for Hypoxia Inducible Factor 1 Alpha (HIF1a) were purchased from CLOUD-CLONE CORP.(CCC) and for Human MGMT from LifeSpan Biosciences, Inc.
For orientation: In an ELISA, binding on a coated surface is turned into a signal by an enzyme label.

A further data set deals with MPG. In words: ELISA protein level in human GBM cell lysates. It counts as cell-based. As to the method: as §1, §2, §3
The test system of data set [1] is LBP (lipopolysaccharide binding protein). Description: LBP ELISA in tumor tissue and serum of F98 glioma-bearing rats. It is filed as in vivo, rat. From the text: The inventor also discovered a potential biomarker, LBP (lipopolysaccharide binding protein), that is elevated in tumors of rat F98 glioma-bearing rats (assessed by ELISA), and in GBM human tissue samples (assessed by immunohistochemistry). […] The inventor used an ELISA kit for LBP to assess this biomarker as an efficacy marker in both G55-tumor-bearing mice in both tumor tissue and blood serum, either untreated or treated with TMZ, OKN-007 or TMZ +OKN-007.
Mice and Treatments. Animal studies were conducted in accordance to the OMRF IACUC (Institutional Animal Care and Use Committee) policies, which follow NIH guidelines. For the F98 rat glioma cell implantation model, F98 cells (10^5 in 10-μ1 volume) were intracerebrally implanted with a stereotaxic device (2 mm lateral and 2 mm anterior to the bregma, and at a 3 mm depth) in a total of 15 Fischer 344 rats (male 200-250 gm). The animals were divided into two groups once tumors reached 10-20 mm^3 in volume (as determined by MRI): OKN-007 treated (n=8) and untreated (UT) (n=7) groups. […] Once tumors reached 10-15 mm^3 (determined via MRI), mice were either treated daily with OKN-007 in the drinking water (150 mg/kg; 0.20% w/v for a 20 g mouse), or every 3 days with TMZ (30 mg/kg). […] Water bottles were weighed, and the amount of OKN-007 consumed per mouse was determined. […]

The next data set has as its system TGFβ1. In words: TGFβ1 protein levels (IHC, ELISA) in F98 gliomas. It counts as in vivo, rat. The protocol:
Mice and Treatments. Animal studies were conducted in accordance to the OMRF IACUC (Institutional Animal Care and Use Committee) policies, which follow NIH guidelines. For the F98 rat glioma cell implantation model, F98 cells (10^5 in 10-μ1 volume) were intracerebrally implanted with a stereotaxic device (2 mm lateral and 2 mm anterior to the bregma, and at a 3 mm depth) in a total of 15 Fischer 344 rats (male 200-250 gm). The animals were divided into two groups once tumors reached 10-20 mm^3 in volume (as determined by MRI): OKN-007 treated (n=8) and untreated (UT) (n=7) groups. Rats were treated until tumors reached 200-250 mm^3 in volume or for a total of 4-6 weeks. For the G55 GBM cell implantation model, two-month-old male nude mice (Hsd:Athymic Nude-Foxnlnu mice; Harlan Inc., Indianapolis, IN) were implanted intracerebrally with human G55 xenograft cells (1×10^6) per mL suspended in 4 μL in cell culture media of 1% agarose solution. Once tumors reached 10-15 mm^3 (determined via MRI), mice were either treated daily with OKN-007 in the drinking water (150 mg/kg; 0.20% w/v for a 20 g mouse), or every 3 days with TMZ (30 mg/kg). OKN-007 was dissolved in water and made fresh every 2 days. Water bottles were weighed, and the amount of OKN-007 consumed per mouse was determined. […] The average intake of OKN-007 was approximately 140-150 mg/kg/day/mouse. […]

The next data set has as its system G55 GBM cells. In words: Cell migration in laminin-coated PDMS micro-channels. It counts as cell-based, human. Particulars: at 22 h and 46 h following treatment. The protocol: Cell migration. For the migration study, 6-well chambers with PDMS (polydimethylsiloxane) micro-channels inside were coated with 10 μg/ml of laminin (Sigma-Aldrich) in each well. G55 cells were seeded (50×10^3) in 100 μl and supplemented with 2 ml of media in each well. The chambers were incubated in the incubator at 37° C. with 5% CO2 until scheduled time points. Some chambers were treated with OKN-007, TMZ or OKN-007 combined with TMZ (1 μL/mL media for both OKN-007 and TMZ, as well as when the two are combined), and for each treatment group one well was left untreated as a control. Images of the cells inside the microchannels were taken using an Olympus CK40 inverted microscope (Japan) under 10× and the distances of the same cells traveled were measured at 22 h, 28 h, and 46 h post seeding, cell migration speed (μm/h) was calculated. Each treatment was repeated at least 3 times and data shown as mean ±S.D.

A short description of a further data set: Solubility in water. It is filed as physicochemical. To be noted: free acid.
For data set [2] the following is noted: tested in vivo; cited from earlier work.

Turning to `CC(C)(C)[N+]([O-])=Cc1ccc(S(=O)(=O)O)cc1S(=O)(=O)O` [OKN-007, 2,4-disulfonyl phenyl tert-butyl nitrone], the “ELISA protein level HIF-1α” value was determined as 0.19 ng/mg cell lysate in the data set on HIF-1α (G55 cells, UT 0.14); 0.92 ng/mg cell lysate in the data set on HIF-1α (LN18 cells, UT 0 76); 0.66 ng/mg cell lysate in the data set with HIF-1α (LN229 cells, UT 0.68); 0.58 ng/mg cell lysate with HIF-1α (T98 cells, UT 0.42); 0.33 ng/mg cell lysate in the data set with HIF-1α (U138 cells, UT 0.40); 0.61 ng/mg cell lysate in the data set on HIF-1α (U251 cells, UT 0.30). The “ELISA protein level MPG” value with MPG (G55 cells, UT 1.15) is on record as 1.41 ng/mg cell lysate; in the data set with MPG (LN18 cells, UT 2.18), 2.38 ng/mg cell lysate; with MPG (LN229 cells, UT 2.34) it was 1.88 ng/mg cell lysate; in the data set on MPG (T98 cells, UT 3.04), 3.61 ng/mg cell lysate; with MPG (U138 cells, UT 1.30), 1.22 ng/mg cell lysate; in the data set with MPG (U251 cells, UT 2.70) it was 2.77 ng/mg cell lysate. Besides, the “LBP levels in tumor tissues compared to untreated gliomas” value in data set [1] (F98 glioma bearing rats, p<0.0001) was “significant decrease in LBP levels”. The “serum levels of LBP compared to untreated tumor-bearing rats” value in data set [1] (F98 glioma-bearing rats, p<0.001) is recorded as “significantly lower”. Further, in the data set with TGFβ1 (F98 gliomas), the “TGFβ1 protein levels by immunohistochemistry compared to UT tumors” value is reported as “substantially reduced”. For the same molecule, in the data set on TGFβ1 (F98 tumor tissue lysates, p<0.001), the “TGFβ1 protein expression by ELISA compared to UT tumors” value was “significantly decreased”. In the data set with G55 GBM cells, the “cell migration speed compared to untreated (UT) cells” value is “significantly decreased”. Also, the solubility in water entry in the data set “Solubility in water” is “greater than 1 gram/ml”. Further, the “efficacy as compared to PBN” value in data set [2] is given as “unexpected increase in efficacy”. For the same molecule, the “potency as compared to PBN” value in data set [2] is listed as “increase in potency”. The “toxicity as compared to PBN” value in data set [2] is “marked and highly significant decrease in toxicity”.

The record behind these values is patent publication US11660280B2, “Treatment of drug resistant gliomas” (OKLAHOMA MEDICAL RESEARCH FOUNDATION, priority 2017, dated 2023).
